This is an account of results in patent US20150336943A1, “NOVEL BENZODIOXANE-PIPERIDINE DERIVATIVES AND THEIR THERAPEUTIC APPLICATIONS FOR TREATING NEUROPSYCHIATRIC DISORDERS” (PIERRE FABRE MEDICAMENT, priority 2013, published 2015).

For one test, the target named is T1, D2 receptor (Homo sapiens, UniProt P14416).
T1 construct: expressed in transfected cells; host or cells: recombinant human cells (so in the source)
The test is described as follows: Intrinsic (agonist) activity at the D2 receptor. It counts as cell-based. As for the experimental part: The prior art mentions, for benzodioxane-piperidine derivatives bearing an amide, a urea or an imidazolidinone, as non-selective alpha2-antagonists (WO 97/28157, WO 98/02435); some of these products also have a weak affinity for the D2 dopaminergic receptor (T. Imbert, J. Med. Chem, 2000, 43: 3653-3664). […] Activity as a D2 and D3 receptor agonist was determined according to the described methods (Bruins Slot L A, De Vries L, Newman-Tancredi A, Cussac D. Differential profile of antipsychotics at serotonin 5-HT1A and dopamine D2S receptors coupled to extracellular signal-regulated kinase. Eur J Pharmacol, 2006, 534; 63-70; Bruins Slot L A, Palmier C, Tardif S, Cussac D. Action of novel antipsychotics at human dopamine D3 receptors coupled to G protein and ERK1/2 activation. Neuropharmacology, 2007, 53: 232-241) for the following compounds, such as described in WO 97/28157 and WO 98/02435; • 1-benzyl-3-(2-(1-((2,3-dihydrobenzo[b][1,4]dioxin-2-yl)methyl)piperidin-4-yl)ethyl)imidazolidin-2-one • 1-(2-(1-((2,3-dihydrobenzo[b][1,4]dioxin-2-yl)methyl)piperidin-4-yl)ethyl)-3-methylimidazolidin-2-one • 1-(2,6-dichlorophenyl)-3-(2-(1-((2,3-dihydrobenzo[b][1,4]dioxin-2-yl)methyl)piperidin-4-yl)ethyl)imidazolidin-2-one • 1-(2-(1-((2,3-dihydrobenzo[b][1,4]dioxin-2-yl)methyl)piperidin-4-yl)ethyl)-3-(pyridin-4-yl)imidazolidin-2-one • 3-(2-(1-((2,3-dihydrobenzo[b][1,4]dioxin-2-yl)methyl)piperidin-4-yl)ethyl)-1-phenylimidazolidine-2,4-dione • (S)—N-(2-(1-((2,3-dihydrobenzo[b][1,4]dioxin-2-yl)methyl)piperidin-4-yl)ethyl)-[1,1′-biphenyl]-4-carboxamide • (S)—N-(2-(1-((2,3-dihydrobenzo[b][1,4]dioxin-2-yl)methyl)piperidin-4-yl)ethyl)-4-(1H-pyrrol-1-yl)benzamide • (S)—N-(2-(1-((2,3-dihydrobenzo[b][1,4]dioxin-2-yl)methyl)piperidin-4-yl)ethyl)-4-(pyridin-4-yl)benzamide • (S)—N-(2-(1-((2,3-dihydrobenzo[b][1,4]dioxin-2-yl)methyl)piperidin-4-yl)ethyl)-4-(pyridin-3-yl)benzamide • (S)—N-(2-(1-((2,3-dihydrobenzo[b][1,4]dioxin-2-yl)methyl)piperidin-4-yl)ethyl)-9-oxo-9H-fluorene-1-carboxamide.
(§1) Compounds of formula 1 have been evaluated in vitro as ligands for dopaminergic and noradrenergic receptors and modulators of the activity of these receptors according to the invention in recombinant human cells expressing the receptors. The inhibition constants (Ki) were measured for dopaminergic receptors D2 and D3, and for adrenergic receptors alpha2A, alpha2B and alpha2C, according to the described methods (Newman-Tancredi A, Assie M B, Martel J C, Cosi C, Slot L B, Palmier C, Rauly-Lestienne I, Colpaert F, Vacher B, Cussac D. F15063, a potential antipsychotic with D2/D3 antagonist, 5-HT 1A agonist and D4 partial agonist properties. I. In vitro receptor affinity and efficacy profile. Br J Pharmacol., 2007, 151:237-252). The intrinsic activity of the products for the D2 receptor was measured (Bruins Slot L A, De Vries L, Newman-Tancredi A, Cussac D. Differential profile of antipsychotics at serotonin 5-HT1A and dopamine D2S receptors coupled to extracellular signal-regulated kinase. Eur J Pharmacol, 2006, 534; 63-70. The results obtained for some of these compounds are presented in the following table.

Test [1] deals with MK-801-induced hyperactivity. The experiment in a line: MK-801-induced hyperactivity test in mice. The test is classed as in vivo. The settings on record: Mus musculus.
Test [2] concerns the target T2, adrenergic receptor alpha2B (Homo sapiens, UniProt P18089).
T2 construct: expressed in transfected cells; host or cells: recombinant human cells (so in the source)
T2 sequence (P18089 1-450): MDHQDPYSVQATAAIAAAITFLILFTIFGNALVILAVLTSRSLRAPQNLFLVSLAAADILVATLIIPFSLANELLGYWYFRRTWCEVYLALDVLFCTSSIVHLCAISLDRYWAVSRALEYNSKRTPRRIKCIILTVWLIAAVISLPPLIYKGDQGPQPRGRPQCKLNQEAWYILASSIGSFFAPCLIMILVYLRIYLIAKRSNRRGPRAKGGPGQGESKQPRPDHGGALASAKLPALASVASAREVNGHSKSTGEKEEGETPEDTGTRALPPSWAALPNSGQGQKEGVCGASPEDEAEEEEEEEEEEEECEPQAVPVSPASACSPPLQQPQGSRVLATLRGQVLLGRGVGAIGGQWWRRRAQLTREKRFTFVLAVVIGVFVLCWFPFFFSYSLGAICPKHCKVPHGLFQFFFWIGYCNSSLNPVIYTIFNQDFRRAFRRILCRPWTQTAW
The experiment in a line: Inhibition constants (Ki) for adrenergic receptor alpha2B in recombinant cells. It counts as binding. The settings on record: read-out: pKi α2B (converted). As for the experimental part:
as §1

Another test has as its target T3, dopaminergic receptor D3 (Homo sapiens, UniProt P35462).
T3 construct: expressed in transfected cells; host or cells: recombinant human cells (so in the source)
The test is described as follows: Inhibition constants (Ki) for dopaminergic receptor D3 in recombinant cells. It counts as binding. Conditions: read-out: pKi D3 (converted). How it is done: as §1

In a further test the target is T4, dopaminergic receptor D2 (Homo sapiens, UniProt P14416).
T4 construct: expressed in transfected cells; host or cells: recombinant human cells (so in the source)
T4 sequence (P14416 whole entry): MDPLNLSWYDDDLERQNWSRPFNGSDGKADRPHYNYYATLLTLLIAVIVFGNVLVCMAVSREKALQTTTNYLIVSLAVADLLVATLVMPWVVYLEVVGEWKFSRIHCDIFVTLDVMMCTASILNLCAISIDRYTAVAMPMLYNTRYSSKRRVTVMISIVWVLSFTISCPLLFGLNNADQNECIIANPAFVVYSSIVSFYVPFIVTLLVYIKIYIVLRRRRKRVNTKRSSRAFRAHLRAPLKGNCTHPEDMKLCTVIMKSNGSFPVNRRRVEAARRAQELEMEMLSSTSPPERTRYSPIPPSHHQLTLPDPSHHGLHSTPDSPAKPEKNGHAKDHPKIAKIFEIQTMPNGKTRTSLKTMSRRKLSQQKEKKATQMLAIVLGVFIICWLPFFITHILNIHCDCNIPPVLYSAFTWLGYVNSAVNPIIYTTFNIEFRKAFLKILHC
The experiment in a line: Inhibition constants (Ki) for dopaminergic receptor D2 in recombinant cells. Conditions: read-out: pKi D2 (converted). The test is classed as binding. As for the experimental part:
as §1

For test [3], the target named is T5, adrenergic receptor alpha2A (Homo sapiens, UniProt P08913).
T5 construct: expressed in transfected cells; host or cells: recombinant human cells (so in the source)
T5 sequence (P08913 1-465): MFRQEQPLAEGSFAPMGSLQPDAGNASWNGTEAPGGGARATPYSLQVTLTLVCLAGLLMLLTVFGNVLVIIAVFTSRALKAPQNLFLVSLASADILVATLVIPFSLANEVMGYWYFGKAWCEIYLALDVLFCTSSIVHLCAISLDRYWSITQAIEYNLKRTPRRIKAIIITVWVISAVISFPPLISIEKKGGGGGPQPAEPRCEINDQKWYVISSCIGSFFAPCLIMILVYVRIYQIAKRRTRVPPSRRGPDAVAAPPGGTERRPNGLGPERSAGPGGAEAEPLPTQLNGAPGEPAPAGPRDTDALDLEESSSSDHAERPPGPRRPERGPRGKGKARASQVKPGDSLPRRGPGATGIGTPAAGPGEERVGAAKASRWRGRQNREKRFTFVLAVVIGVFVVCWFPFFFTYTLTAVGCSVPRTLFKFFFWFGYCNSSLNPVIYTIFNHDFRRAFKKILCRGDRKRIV
The experiment in a line: Inhibition constants (Ki) for adrenergic receptor alpha2A in recombinant cells. It counts as binding. Conditions: read-out: pKi α2A (converted). How it is done:
as §1

The target of test [4] is T6, adrenergic receptor alpha2C (Homo sapiens, UniProt P18825).
T6 construct: expressed in transfected cells; host or cells: recombinant human cells (so in the source)
T6 sequence (P18825 1-462): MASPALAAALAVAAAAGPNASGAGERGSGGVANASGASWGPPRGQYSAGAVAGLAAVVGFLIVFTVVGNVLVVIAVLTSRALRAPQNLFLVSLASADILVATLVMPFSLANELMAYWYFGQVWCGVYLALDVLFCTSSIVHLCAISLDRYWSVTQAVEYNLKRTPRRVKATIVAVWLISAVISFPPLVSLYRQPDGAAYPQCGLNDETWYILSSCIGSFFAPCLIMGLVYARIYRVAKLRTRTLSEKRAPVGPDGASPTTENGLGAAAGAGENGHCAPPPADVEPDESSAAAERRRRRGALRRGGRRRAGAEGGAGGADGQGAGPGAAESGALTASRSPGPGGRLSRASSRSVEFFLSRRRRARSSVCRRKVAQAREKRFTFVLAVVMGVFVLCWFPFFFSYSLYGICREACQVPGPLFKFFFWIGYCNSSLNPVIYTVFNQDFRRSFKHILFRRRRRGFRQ
The experiment in a line: Inhibition constants (Ki) for adrenergic receptor alpha2C in recombinant cells. The test is classed as binding. Conditions: read-out: pKi α2C (converted). How it is done:
as §1

T3 sequence (P35462 whole entry): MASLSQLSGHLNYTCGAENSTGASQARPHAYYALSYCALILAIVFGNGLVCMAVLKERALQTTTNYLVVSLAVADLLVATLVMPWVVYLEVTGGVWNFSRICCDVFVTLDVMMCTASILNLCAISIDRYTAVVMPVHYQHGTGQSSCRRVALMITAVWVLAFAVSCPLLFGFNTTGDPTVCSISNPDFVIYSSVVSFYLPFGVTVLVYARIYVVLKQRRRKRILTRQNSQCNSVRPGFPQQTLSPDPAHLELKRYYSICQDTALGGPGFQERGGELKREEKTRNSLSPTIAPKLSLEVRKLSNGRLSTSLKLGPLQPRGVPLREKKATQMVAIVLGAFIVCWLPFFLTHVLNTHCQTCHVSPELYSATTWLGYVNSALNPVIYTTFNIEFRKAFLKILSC
T1 sequence (P14416 1-414 isoform P14416-2): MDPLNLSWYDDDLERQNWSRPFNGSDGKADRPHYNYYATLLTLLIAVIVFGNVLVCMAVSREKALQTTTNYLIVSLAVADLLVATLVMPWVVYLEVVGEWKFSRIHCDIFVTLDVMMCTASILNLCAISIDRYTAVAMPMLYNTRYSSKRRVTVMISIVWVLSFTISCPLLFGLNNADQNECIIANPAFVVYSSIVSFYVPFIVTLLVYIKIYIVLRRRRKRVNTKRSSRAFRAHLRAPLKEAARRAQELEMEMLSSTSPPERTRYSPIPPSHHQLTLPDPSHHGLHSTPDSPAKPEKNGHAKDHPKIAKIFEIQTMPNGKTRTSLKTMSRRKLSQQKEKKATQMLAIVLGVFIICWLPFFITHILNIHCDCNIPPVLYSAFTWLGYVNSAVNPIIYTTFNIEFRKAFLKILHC

A word on the ED50: it is the midpoint of the dose-response relation. A low value points to greater potency. For `O=C1OCCN1CCC1CCN(C[C@H]2COc3ccc(F)cc3O2)CC1` [Example 7, (S)-3-(2-(1-((7-fluoro-2,3-dihydrobenzo[b][1,4]dioxin-2-yl)methyl)piperidin-4-yl)ethyl)oxazolidin-2-one], the “I.A.: Intrinsic activity on receptor D2 in vitro” value (from here on “I.A.: Intrinsic activity”) on D2 receptor is 36 percentage of that of dopamine. The molecule further gave a 50% effective dose (ED50) in test [1] of 0.15 mg/kg. For the same molecule, the Ki in test [2] was 1.95 nM; on dopaminergic receptor D3, 6.46 nM; at dopaminergic receptor D2, 14.5 nM; in test [3], 8.71 nM; in test [4], 0.851 nM.
As for `O=C1OC[C@@H](COc2ccccc2)N1CCC1CCN(C[C@H]2COc3ccc(Br)cc3O2)CC1` [Example 69, (R)-3-(2-(1-(((S)-7-bromo-2,3-dihydrobenzo[b][1,4]dioxin-2-yl)methyl)piperidin-4-yl)ethyl)-4-(phenoxymethyl)oxazolidin-2-one], the “I.A.: Intrinsic activity” value on D2 receptor is given as 13 percentage of that of dopamine. For the same molecule, it took a dose of 0.6 mg/kg to reach the 50% effect level in test [1] (ED50). The Ki was 186 nM in test [2]; 0.417 nM at dopaminergic receptor D3; 0.24 nM at dopaminergic receptor D2; 200 nM in test [3]; 8.71 nM in test [4].
Turning to `O=C1OC[C@H](Cc2ccccc2)N1CCC1CCN(C[C@H]2COc3ccc(OC(F)(F)F)cc3O2)CC1` [Example 32, (S)-4-benzyl-3-(2-(1-(((S)-7-(trifluoromethoxy)-2,3-dihydrobenzo[b][1,4]dioxin-2-yl)methyl)piperidin-4-yl)ethyl)oxazolidin-2-one], in test [1], the ED50 amounted to 2.4 mg/kg. In addition, the Ki in test [2] was 18.2 nM; at dopaminergic receptor D3 it was 0.355 nM; at dopaminergic receptor D2, 1.26 nM; in test [3] it was 15.1 nM; in test [4], 6.61 nM.
`O=C1COCCN1CCC1CCN(C[C@H]2COc3c(F)cc(Cl)cc3O2)CC1` [Example 94, (S)-4-(2-(1-((7-chloro-5-fluoro-2,3-dihydrobenzo[b][1,4]dioxin-2-yl)methyl)piperidin-4-yl)ethyl)morpholin-3-one]: the “I.A.: Intrinsic activity” value at D2 receptor is 0 percentage of that of dopamine. For the same molecule, in test [1], the ED50 turned out to be 0.19 mg/kg. The Ki in test [2] was 4.47 nM; on dopaminergic receptor D3, 0.347 nM; at dopaminergic receptor D2 it was 1.66 nM; in test [3] it was 5.37 nM; in test [4] it was 0.617 nM.
`N#Cc1ccc2c(c1)O[C@@H](CN1CCC(CCN3CCOCC3=O)CC1)CO2` [Example 85, (S)-3-((4-(2-(3-oxomorpholino)ethyl)piperidin-1-yl)methyl)-2,3-dihydrobenzo[b][1,4]dioxine-6-carbonitrile]: the ED50 in test [1] worked out at 0.5 mg/kg. For the same molecule, the Ki in test [2] was 81.3 nM; at dopaminergic receptor D3, 1.23 nM; on dopaminergic receptor D2, 19.1 nM; in test [3], 57.5 nM; in test [4], 6.76 nM.
On to `O=C1OC[C@H](Cc2ccccc2)N1CCC1CCN(C[C@H]2COc3cc(O)ccc3O2)CC1` [Example 36], for which the ED50 in test [1] came to 3.4 mg/kg. For the same molecule, the Ki is 1.17 nM in test [2]; 1.29 nM at dopaminergic receptor D3; 2.14 nM at dopaminergic receptor D2; 6.03 nM in test [3]; 0.562 nM in test [4].
With `O=C1OCCN1CCC1CCN(C[C@H]2COc3c(F)cc(F)cc3O2)CC1` [Example 10, (S)-3-(2-(1-((5,7-difluoro-2,3-dihydrobenzo[b][1,4]dioxin-2-yl)methyl)piperidin-4-yl)ethyl)oxazolidin-2-one], the “I.A.: Intrinsic activity” value at D2 receptor was 6 percentage of that of dopamine. This molecule also registered an ED50 in test [1] of 0.13 mg/kg. In addition, the Ki is 0.813 nM in test [2]; 1.55 nM at dopaminergic receptor D3; 4.57 nM at dopaminergic receptor D2; 4.57 nM in test [3]; 0.537 nM in test [4].
